The data set concerns the target Xanthine dehydrogenase/oxidase (Bos taurus, UniProt P80457). Kind of data set: Inhibition of bovine milk xanthine oxidase assessed as reduction in uric acid production using xanthine as substrate after 10 mins by HPLC analysis.

SMILES strings stand for the structures.

Sequence of Xanthine dehydrogenase/oxidase (P80457 whole entry): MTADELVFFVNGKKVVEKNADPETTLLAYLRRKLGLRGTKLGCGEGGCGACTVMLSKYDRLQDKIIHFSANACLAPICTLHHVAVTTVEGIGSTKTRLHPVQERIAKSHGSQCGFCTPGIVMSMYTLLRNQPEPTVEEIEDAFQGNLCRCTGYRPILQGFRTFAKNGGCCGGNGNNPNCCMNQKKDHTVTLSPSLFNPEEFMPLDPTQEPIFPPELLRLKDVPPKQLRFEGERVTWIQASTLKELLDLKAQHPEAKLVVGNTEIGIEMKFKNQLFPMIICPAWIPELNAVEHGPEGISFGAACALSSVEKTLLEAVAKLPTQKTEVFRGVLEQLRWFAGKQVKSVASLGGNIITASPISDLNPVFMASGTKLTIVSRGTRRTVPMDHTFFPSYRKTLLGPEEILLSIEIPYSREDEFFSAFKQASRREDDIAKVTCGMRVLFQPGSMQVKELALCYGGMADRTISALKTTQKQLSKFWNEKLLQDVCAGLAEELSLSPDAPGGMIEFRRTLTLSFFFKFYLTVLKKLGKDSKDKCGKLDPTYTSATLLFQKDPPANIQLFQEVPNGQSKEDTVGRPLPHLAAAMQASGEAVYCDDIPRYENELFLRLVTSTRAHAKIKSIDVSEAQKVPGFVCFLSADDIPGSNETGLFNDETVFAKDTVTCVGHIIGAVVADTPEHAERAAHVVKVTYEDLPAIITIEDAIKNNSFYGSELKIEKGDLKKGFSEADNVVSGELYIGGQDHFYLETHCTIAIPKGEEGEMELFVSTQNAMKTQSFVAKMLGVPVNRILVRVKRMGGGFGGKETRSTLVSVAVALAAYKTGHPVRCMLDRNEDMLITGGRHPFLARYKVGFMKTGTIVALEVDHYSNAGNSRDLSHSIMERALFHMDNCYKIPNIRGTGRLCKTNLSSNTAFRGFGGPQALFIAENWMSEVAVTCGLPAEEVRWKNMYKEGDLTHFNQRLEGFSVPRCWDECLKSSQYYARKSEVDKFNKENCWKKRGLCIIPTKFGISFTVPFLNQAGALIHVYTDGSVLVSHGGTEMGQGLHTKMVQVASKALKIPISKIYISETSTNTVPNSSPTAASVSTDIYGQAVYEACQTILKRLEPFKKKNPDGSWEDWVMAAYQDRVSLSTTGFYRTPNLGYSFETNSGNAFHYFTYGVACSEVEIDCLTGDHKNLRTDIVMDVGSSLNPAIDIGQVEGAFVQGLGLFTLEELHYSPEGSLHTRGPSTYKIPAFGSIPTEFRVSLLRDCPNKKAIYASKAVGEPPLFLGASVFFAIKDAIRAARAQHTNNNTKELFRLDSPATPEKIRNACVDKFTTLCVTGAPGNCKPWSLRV

On to `COc1cc(-c2c(O)c(=O)oc3cc(O)cc(O)c23)ccc1O`, for which the IC50 – broadly, the concentration that gives 50% inhibition – came to 3.9 µM. `COc1cc([C@@H]2c3c(cc4c(c3OC)OCO4)C[C@@H]3COC[C@H]32)cc2c1OCO2`: the “inhibition (INH)” value (cattle, 10 min) was “Active”.

The values above are taken from ChEMBL document CHEMBL4330164, “Propolis Components from Stingless Bees Collected on South Sulawesi, Indonesia, and Their Xanthine Oxidase Inhibitory Activity” (J Nat Prod, 2019).
